# Measured values published in EP1721614A1, “Epirubicine hydrochloride for treating hepatitis C virus” (Institut National de la Santé et de la Recherche Médicale …, priority 2005, dated 2006).
# Where a name gives a salt, the structure may show the parent alone.
# Assays:
# [1] = cited from earlier work
# in vitro = details: human, huh7 cells
# [2] = tested on: HCV subgenomic replicon stably transfected into Huh7 cell lines (clone BM4.5); experiment: anti-HCV activity in HCV subgenomic replicon system (Northern blot of HCV RNA, normalised to actin); assay type: cell-based, hepatitis C virus (HCV)
# Experimental: The potential antiviral (anti HCV) activity of epirubicin hydrochloride was tested in in vitro cell culture model using the HCV subgenomic replicon stably transfected into Huh7 cell lines (clone BM4.5) (Ju-Tao Gao et al., J Virol. 2001).
# Huh7 cells containing the HCV replicon were grown in cell culture medium in presence of varying concentration of epirubicin. The media and drug were changed everyday for 5 days. After 5 days of treatment the cells were lysed and total RNA extracted. The isolated RNA was then assayed for presence of HCV replication by Northern Blot analysis, using a HCV probe targeting the NS5B region of HCV.
# The cell lines were treated everyday with epirubicin from concentration of 20 nM to 2 nM for 5 days and at the end of treatment RNA from the treated cells were isolated. The total RNA was then probed with a HCV specific probe using Northern blot analysis to detect the HCV RNA. The resulting blot was then exposed to phosphorimager densitometry and the viral replication quantified.
smiles,measurement,setting,value
"COc1cccc2c1C(=O)c1c(O)c3c(c(O)c1C2=O)C[C@@](O)(C(=O)CO)C[C@@H]3O[C@H]1C[C@H](N)[C@@H](O)[C@H](C)O1 [epirubicin hydrochloride, 7-O-(3'-amino-2',3',6'-trideoxy-α,β-L-arabinohexpyranosyl)-adriamycinone hydro-chloride]",maximum cumulative dose,[1]; antitumor therapy in man,900 - 1000 mg/m^2
same,"""safe"" dose (total cumulative dose, Kaplan-Meier plot of cumulative probability of developing congestive heart failure)",[1]; man,100 - 150 mg/m^2
same,CC50,in vitro,> 100 nM
same,selectivity index,[2]; CC50 in Huh7 cells versus IC50 in HCV replicon system,25
same,IC50,"[2]; Hepatitis C virus, Huh-7, 120 h, Huh7 replicon cells, 5 days of treatment, Figure 2, read-out: 50% inhibitory concentration (IC50), anti-HCV activity measured in HCV replicon system",3 to 5 nM
